From PMC10350920, “Development of a 2,4-Diaminothiazole Series for the Treatment of Human African Trypanosomiasis Highlights the Importance of Static–Cidal Screening of Analogues” (Journal of Medicinal Chemistry, 2023)
Values joined by “and” are separate entries in the source; they are usually repeats but may differ in a detail not shown here. Equal values may be shown once. “Also recorded” adds a separate entry of the source. Read-outs that look alike come from different tables or passages of the source.

Assays:
[1] = Mouse brain penetration (brain:blood ratio); assay type: in vivo, female NMRI mice; settings: mice, bolus of test compound, total compound
Procedure: Medicines for HAT are required to treat both acute and chronic infections, where parasites pass through the blood/brain barrier and enter the CNS. With this in mind, mice were dosed with an […] bolus of our test compounds, and compound concentrations in blood and brain were determined by UPLC–MS/MS. […] The brain fraction unbound was 0.0063 for 16 and 0.0313 for 38. Brain penetration of the series as a whole tracked with the generally accepted rules of CNS penetration, with a lower topological PSA (TPSA) and molecular weight compounds having an increased B/B ratio (Table S2 and Figure S1). However, the link between log P and the B/B ratio was slightly less convincing. […] This difference could be explained by 18 being a substrate for the P-glycoprotein efflux pump.
Each compound was dosed as an IV bolus at 10 mg kg^–1 dissolved in 15% solutol/Milli-Q (dose volume 10 mL kg^–1) to female NMRI mice (n = 3). At 30 min following the IV bolus of the test compound, mice (n = 3/time point) were placed under terminal anesthesia with isoflurane. A blood sample was taken by cardiac puncture and added to two volumes of distilled water, and the brain was removed. […] For each mouse at each time point, the concentration in the brain (ng g^–1) was divided by the concentration in blood (ng mL^–1) to give a brain: blood ratio.

T. b. brucei S427 = test: Stage 1 efficacy study in NMRI mice; assay type: in vivo
Procedure: Stage 1 efficacy experiments using T. b. brucei S427 were performed as described,[44] with minor modifications. In brief, male SD rats (38) or female HRN (16) and NMRI (16, 38) mice (3–5 per group) were injected intraperitoneally with 1 × 10^4 BSFs of T. brucei. These BSFs come from a stock of cryopreserved stabilates containing 10% glycerol. The stabilate was suspended in 20 mM Hanks’ balanced salt solution with glucose to obtain a trypanosome concentration of 5 × 10^4 cells mL^–1. Each mouse was injected with 0.2 mL. […] Dose concentrations were 1.25, 2.5, 5, 7.5, 10, 30, and 50 mg kg^–1 free base (16) or 100 mg kg^–1 free base (38). The doses were prepared fresh daily, using 5% DMSO/40% PEG400/55% Milli-Q (16) or 15% solutol/85% Milli-Q (38), and the dose volume was 10 mL kg^–1. One group of three mice was an untreated control group.

[2] = system: BSF T. b. brucei “single marker” S427; test: Drug sensitivity assay with bloodstream-form T. brucei; assay type: cell-based; settings: for EC50: mean values, number of replicates in parentheses
Procedure: (§1) Drug sensitivity assays with BSF T. b. brucei “single marker” S427 and human MRC-5 fibroblasts were conducted as previously described.[43]

human MRC-5 fibroblasts = test: Mammalian cell counter screen (MRC-5); assay type: cell-based; settings: for SI: selectivity index (EC50 MRC5/EC50 T. brucei)
Procedure: as §1

[3] = Pharmacokinetics in NMRI mice; assay type: in vivo, female NMRI mice
Procedure: To determine compound exposure, compounds were dosed by gavage (16, 38) at 10 mg kg^–1 free base (16, 38), dose volume; and 5 mL kg^–1 (16, 38), dose vehicle (10% DMSO/40% PEG400/50% Milli-Q) to female NMRI mice, n = 3/dose level (16), or Sprague Dawley rats (38). Blood samples were taken from each mouse/rat at 5, 15, and 30 min, 1, 2, 4, 6, and 8 h postdose and mixed with two volumes of distilled water. After suitable sample preparation, the concentration of the test compound in blood was determined by UPLC–MS/MS using a Quattro Premier XE (Waters, USA). Pharmacokinetic parameters were derived from the mean blood concentration–time curve using PKsolutions software v 2.0 (Summit Research Services, USA).

[4] = Equilibrium dialysis, free fraction in brain; assay type: in vitro ADME, mouse
Procedure: In brief, a 96-well equilibrium dialysis apparatus was used to determine the free fraction in plasma and the brain (HT Dialysis LLC, Gales Ferry, CT). Isotonic buffer was prepared using 8.69 g of Na2HPO4, 1.9 g of KH2PO4, and 4.11 g of NaCl dissolved in 1 L of Milli-Q water, and the pH was adjusted to 7.4. Artificial CSF was prepared using 3.652 g of NaCl, 93.2 mg of KCl, 119.96 mg of MgCl2, 92.61 mg of CaCl2, and 268 mg of Na2HPO4 heptahydrate dissolved in 0.5 L of water, and the pH was adjusted to 7.4. Membranes [12–14 (plasma) or 6–9 (brain) kDA cutoff] were conditioned in deionized water for 60 min, followed by conditioning in 80:20 deionized water/ethanol for 20 min, and then rinsed in isotonic buffer (plasma) or […] (brain) before use. Female CD1 mouse plasma was defrosted and centrifuged for 10 min at 3000 rpm (Allegra X12-R, Beckman Coulter, USA). The control mouse brain was homogenized in two volumes of artificial CSF in a Covaris S2 acoustic homogenizer. […] All samples were analyzed by means of UPLC/MS/MS on a Quattro Premier XE or Micro TQs mass spectrometer (Waters Corporation, USA). The unbound fraction was determined as the ratio of the peak area in the buffer to that in the matrix.

[5] = 100 mg kg^–1 IP, assuming linearity of exposure

CC(C)(O)CC(=O)c1sc(Nc2ccc(F)c(F)c2)nc1N [Compound 38, 1-(4-Amino-2-((3,4-difluorophenyl)amino)thiazol-5-yl)-3-hydroxy-3-methylbutan-1-one]
Kp at 30 min ([1]; female, NMRI, mouse, brain and blood, 10 mg kg^–1, read-out: brain/blood (B/B) ratio): 1.4
stage 1 efficacy, parasitemia (T. b. brucei S427; bid 4 days 100 mg kg^–1): no reduction in parasitemia
EC90 ([2]; Trypanosoma brucei, T. brucei): 0.131 µg/mL and 400 nM
EC50 ([2]; Trypanosoma brucei): 180 nM
SI (human MRC-5 fibroblasts): 256
free Cmax in blood, extrapolated [3, 5]: 16 µM
free Cmax, extrapolated [3, 5]: 5200 ng mL^–1
Cmax (total blood) ([3]; NMRI mice, IP, 50 mg kg^–1): 18,000 ng mL^–1
Cmax ([3]; female, NMRI, mouse, whole blood, mice, IP, 50 mg kg^–1, read-out: total blood Cmax): 55 µM
AUC ([3]; female, mouse, whole blood, NMRI mice, IP, 50 mg kg^–1, read-out: AUC (converted)): 31700 ng·h/mL
Tmax ([3]; female, mouse, whole blood, NMRI mice, IP, 50 mg kg^–1, read-out: Tmax): 30 min
free Cmax in the brain, extrapolated ([3]; mice, 100 mg kg^–1 IP): 4.6 µM
fraction unbound at 5 h, 10 μg mL^–1 ([4]; mouse, brain homogenate, pH 7.4, read-out: brain free fraction (Fu, fraction unbound)): 0.0313

(4-Amino-2-(cyclohexylamino)thiazol-5-yl)(2,6-difluorophenyl)methanone [Compound 16]
brain/blood (B/B) ratio [1]: 3.3
stage 1 efficacy (cure = no parasitemia for 30 days) (T. b. brucei S427; IP 10 mg kg^–1 twice daily for 4 days): complete cure; also recorded: efficacious
EC50 [2]: 110 nM
EC50 (human MRC-5 fibroblasts; mean values, number of replicates in parentheses, read-out: MRC-5 EC50): 1200 nM
SI (human MRC-5 fibroblasts): 11
AUC ([3]; NMRI mice, IP, 10 mg kg^–1): 66,000 ng mL h^–1
Tmax ([3]; NMRI mice, IP, 10 mg kg^–1): 15 min
AUC ([3]; NMRI mice, PO, 10 mg kg^–1): 5700 ng mL h^–1
Cmax ([3]; NMRI mice, PO, 10 mg kg^–1): 33 ng mL^–1
Tmax ([3]; NMRI mice, PO, 10 mg kg^–1): 30 min
brain free fraction (Fu, fraction unbound) ([4]; brain): 0.0063
